Data: patent publication US8629132B2, “Kinase inhibitors” (Genosco, priority 2009, dated 2014)

Key:
[1] = system: TNF-α release in THP-1 cells; test: SYK independent TNF-α release assay (LPS stimulation); format: cell-based; details: Homo sapiens, 18-hour incubation
Procedure: Compounds of the present invention are tested for their effects on TNF-α release in human acute monocytic leukimia cell line (THP-1) to illustrate potential efficacy at the cellular level. TNF-α is a cytokine involved in systemic inflammation and is a member of a group of cytokines that stimulate the acute phase reaction. The primary role of TNF-α is in the regulation of immune cells. TNF-α is known to induce apoptotic cell death and inflammation and to inhibit early tumorigenesis and viral replication. Dysregulation and, in particular, overproduction of TNF-α have been implicated in a variety of human diseases, autoimmune disease, inflammation, arthritis and cancer.
Production or release of TNF-α is controlled by type of stimulus to which the cell responds. SYK activity is involved in mediating TNF-α production. When stimulated by IgG, cells increase TNF-α production in a SYK dependent manner (i.e., the SYK dependent pathway). However, when stimulated by lipopolysaccharide (LPS), they produce TNF-α in a SYK independent manner.
For SYK independent TNF-α release assay (i.e., via lipopolysaccharide (LPS)-stimulation), THP-1 cells derived from human monocytic cells were obtained from the American Type Culture Collection (ATCC, Manassas, Va.). This cell line was maintained with an RPMI medium (GIBCO™) containing 10 fetal bovine serum (FBS, GIBCO™) and 0.05 mM 2-mercaptoethanol. The THP-1 cells were seeded at 1×10^5 cells/100 μL/well into 96-well culture plates, and treated with lipopolysaccharide (1 μg/ml), and serially diluted compound was then added. After an 18-hour incubation period at 37° C., supernatants were collected for the determination of the TNF-α level by ELISA, and the remaining cells were subjected to an MTT assay to determine the cytotoxic effects.

RET = molecular target: T1, RET (Homo sapiens, UniProt P07949); test: Kinase inhibition assay: RET; format: biochemical
T1 construct: truncated human FAK, RET, FLT3, JAK2, and LRRK2; purchased Carna Biosciences
T1 sequence (P07949 658-1114 limits assumed): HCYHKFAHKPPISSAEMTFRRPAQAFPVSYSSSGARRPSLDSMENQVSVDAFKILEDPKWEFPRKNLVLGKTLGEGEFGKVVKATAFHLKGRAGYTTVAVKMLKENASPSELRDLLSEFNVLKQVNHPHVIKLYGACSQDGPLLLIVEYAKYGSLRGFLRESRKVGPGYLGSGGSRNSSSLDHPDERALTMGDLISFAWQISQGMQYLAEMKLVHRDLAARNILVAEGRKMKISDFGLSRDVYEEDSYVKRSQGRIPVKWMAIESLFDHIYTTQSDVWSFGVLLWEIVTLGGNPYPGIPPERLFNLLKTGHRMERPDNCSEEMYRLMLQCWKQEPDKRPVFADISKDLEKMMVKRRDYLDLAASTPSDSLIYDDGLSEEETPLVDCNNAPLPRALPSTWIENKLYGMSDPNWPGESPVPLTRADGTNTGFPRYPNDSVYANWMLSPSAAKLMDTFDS

LRRK2 = molecular target: T2, LRRK2 (Homo sapiens, UniProt Q5S007); test: Kinase inhibition assay: LRRK2; format: biochemical; details: at 1 μM concentration
T2 construct: truncated human FAK, RET, FLT3, JAK2, and LRRK2; purchased Carna Biosciences
Procedure: (§1) Compounds of the present invention were tested for their capacity to inhibit a kinase panel which includes, but are not limited to, spleen tyrosine kinase (SYK), zeta-chain-associated protein kinase 70 (ZAP70), PTK2B protein tyrosine kinase 2 (PYK2), focal adhesion kinase (FAK), provirus integration of maloney kinase 1 (PIM1), rearranged during transfection kinase (RET), Fms-like tyrosine kinase 3 (FLT3), Janus kinase 2 (JAK2), and leucine-rich repeat kinase 2 (LRRK2).
(§2) Inhibition of SYK, ZAP70, PYK2, FAK, PIM1, RET, FLT3, JAK2 and LRRK2 Kinase Activity
(§3) Compounds of the invention were initially diluted to 10 mM in 100% DMSO (CALBIOCHEM™) for storage and made into kinase buffer solution to create a compound concentration ranging from 1 uM and 10 uM. Serial dilutions of compounds of the invention were dispensed into a 96-well plate (GREINER BIOSCIENCES™) at 6 μL each. Purified full-length human SYK, ZAP70, PIM1, PYK2 and truncated human FAK, RET, FLT3, JAK2, and LRRK2 (CARNA BIOSCIENCES™) were diluted in kinase buffer and added to the compound solutions and pre-incubated for 30 minutes at room temperature (1 hour for PYK2). […] The reaction mixture was incubated for 1 hour (2 hours for PYK2). Following the incubation, the stop solution made with EDTA, water, and Lance detection buffer ([…]™) was added (12μL each) to stop phosphorylation. […] The IC50 value of test compound was calculated at Gradpad Prism 5 unless specified otherwise.

PYK2 = molecular target: T3, PYK2 (Homo sapiens, UniProt Q14289); test: Kinase inhibition assay: PYK2; format: biochemical; details: at 1 μM concentration
T3 construct: Purified full-length human SYK, ZAP70, PIM1, PYK2; purchased Carna Biosciences
Procedure: as §1, §2, §3

SYK = molecular target: T4, SYK (Homo sapiens, UniProt P43405); test: Kinase inhibition assay: SYK; format: biochemical; details: at 1 μM concentration
T4 construct: Purified full-length human SYK, ZAP70, PIM1, PYK2; purchased Carna Biosciences

K1T = K1T (Homo sapiens, UniProt P10721); test: Kinase inhibition assay: KIT; format: biochemical
JAK2 = JAK2 (Homo sapiens, UniProt O60674); test: Kinase inhibition assay: JAK2; format: biochemical; set-up: truncated human FAK, RET, FLT3, JAK2, and LRRK2; purchased Carna Biosciences
FLT3 = molecular target: T5, FLT3 (Homo sapiens, UniProt P36888); test: Kinase inhibition assay: FLT3; format: biochemical
T5 construct: truncated human FAK, RET, FLT3, JAK2, and LRRK2; purchased Carna Biosciences
T5 sequence (P36888 564-993 limits assumed): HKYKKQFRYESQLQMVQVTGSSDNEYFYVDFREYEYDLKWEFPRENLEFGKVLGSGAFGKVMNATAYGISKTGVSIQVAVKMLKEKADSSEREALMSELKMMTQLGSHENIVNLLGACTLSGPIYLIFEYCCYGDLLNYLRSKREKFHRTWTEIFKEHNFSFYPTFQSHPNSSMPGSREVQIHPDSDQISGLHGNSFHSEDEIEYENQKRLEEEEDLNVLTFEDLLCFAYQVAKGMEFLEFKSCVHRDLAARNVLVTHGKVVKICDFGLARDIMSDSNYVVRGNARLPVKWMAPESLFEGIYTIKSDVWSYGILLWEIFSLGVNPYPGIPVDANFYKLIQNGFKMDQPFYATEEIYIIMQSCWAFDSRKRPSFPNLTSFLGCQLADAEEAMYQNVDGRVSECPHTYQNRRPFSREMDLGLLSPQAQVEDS

T2 sequence (Q5S007 970-2527 limits assumed): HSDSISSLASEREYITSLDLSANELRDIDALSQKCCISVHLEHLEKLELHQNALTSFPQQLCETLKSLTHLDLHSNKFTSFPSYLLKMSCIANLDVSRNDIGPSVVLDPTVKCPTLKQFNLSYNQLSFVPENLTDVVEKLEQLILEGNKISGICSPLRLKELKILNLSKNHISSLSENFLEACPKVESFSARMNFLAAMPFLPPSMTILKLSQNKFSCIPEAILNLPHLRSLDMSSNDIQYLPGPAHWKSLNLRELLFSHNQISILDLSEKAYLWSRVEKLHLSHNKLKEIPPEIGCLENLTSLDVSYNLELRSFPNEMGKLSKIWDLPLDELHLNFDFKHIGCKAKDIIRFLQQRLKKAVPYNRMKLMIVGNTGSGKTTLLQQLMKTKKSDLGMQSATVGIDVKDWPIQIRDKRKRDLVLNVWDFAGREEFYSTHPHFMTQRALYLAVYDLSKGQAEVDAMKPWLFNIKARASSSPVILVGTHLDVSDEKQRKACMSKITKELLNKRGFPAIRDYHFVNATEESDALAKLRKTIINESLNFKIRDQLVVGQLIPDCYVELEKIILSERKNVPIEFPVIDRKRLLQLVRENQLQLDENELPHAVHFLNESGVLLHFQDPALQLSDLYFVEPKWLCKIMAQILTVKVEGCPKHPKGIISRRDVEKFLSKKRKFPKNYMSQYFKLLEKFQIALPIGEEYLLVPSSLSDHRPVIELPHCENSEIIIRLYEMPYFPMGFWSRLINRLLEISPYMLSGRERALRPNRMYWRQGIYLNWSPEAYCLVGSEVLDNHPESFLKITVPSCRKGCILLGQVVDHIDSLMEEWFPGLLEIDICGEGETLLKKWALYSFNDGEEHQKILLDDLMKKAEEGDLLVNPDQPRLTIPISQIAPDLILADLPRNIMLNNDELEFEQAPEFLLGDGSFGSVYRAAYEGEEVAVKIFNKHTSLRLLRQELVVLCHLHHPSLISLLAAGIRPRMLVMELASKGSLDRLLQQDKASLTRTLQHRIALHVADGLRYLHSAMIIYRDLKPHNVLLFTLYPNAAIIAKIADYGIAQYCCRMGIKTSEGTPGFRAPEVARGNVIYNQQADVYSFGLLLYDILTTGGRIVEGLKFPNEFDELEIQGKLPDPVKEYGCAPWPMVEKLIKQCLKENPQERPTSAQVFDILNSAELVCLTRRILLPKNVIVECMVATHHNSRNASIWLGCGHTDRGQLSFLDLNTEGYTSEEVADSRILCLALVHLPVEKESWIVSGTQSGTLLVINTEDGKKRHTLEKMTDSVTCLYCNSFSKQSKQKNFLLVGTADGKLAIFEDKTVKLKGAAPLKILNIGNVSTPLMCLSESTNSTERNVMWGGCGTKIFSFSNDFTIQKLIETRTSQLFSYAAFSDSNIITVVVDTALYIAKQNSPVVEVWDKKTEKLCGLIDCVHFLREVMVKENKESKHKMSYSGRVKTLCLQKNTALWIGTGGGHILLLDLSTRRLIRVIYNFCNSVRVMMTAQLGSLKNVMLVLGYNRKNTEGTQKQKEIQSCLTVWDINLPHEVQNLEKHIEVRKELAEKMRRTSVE
T3 sequence (Q14289 whole entry): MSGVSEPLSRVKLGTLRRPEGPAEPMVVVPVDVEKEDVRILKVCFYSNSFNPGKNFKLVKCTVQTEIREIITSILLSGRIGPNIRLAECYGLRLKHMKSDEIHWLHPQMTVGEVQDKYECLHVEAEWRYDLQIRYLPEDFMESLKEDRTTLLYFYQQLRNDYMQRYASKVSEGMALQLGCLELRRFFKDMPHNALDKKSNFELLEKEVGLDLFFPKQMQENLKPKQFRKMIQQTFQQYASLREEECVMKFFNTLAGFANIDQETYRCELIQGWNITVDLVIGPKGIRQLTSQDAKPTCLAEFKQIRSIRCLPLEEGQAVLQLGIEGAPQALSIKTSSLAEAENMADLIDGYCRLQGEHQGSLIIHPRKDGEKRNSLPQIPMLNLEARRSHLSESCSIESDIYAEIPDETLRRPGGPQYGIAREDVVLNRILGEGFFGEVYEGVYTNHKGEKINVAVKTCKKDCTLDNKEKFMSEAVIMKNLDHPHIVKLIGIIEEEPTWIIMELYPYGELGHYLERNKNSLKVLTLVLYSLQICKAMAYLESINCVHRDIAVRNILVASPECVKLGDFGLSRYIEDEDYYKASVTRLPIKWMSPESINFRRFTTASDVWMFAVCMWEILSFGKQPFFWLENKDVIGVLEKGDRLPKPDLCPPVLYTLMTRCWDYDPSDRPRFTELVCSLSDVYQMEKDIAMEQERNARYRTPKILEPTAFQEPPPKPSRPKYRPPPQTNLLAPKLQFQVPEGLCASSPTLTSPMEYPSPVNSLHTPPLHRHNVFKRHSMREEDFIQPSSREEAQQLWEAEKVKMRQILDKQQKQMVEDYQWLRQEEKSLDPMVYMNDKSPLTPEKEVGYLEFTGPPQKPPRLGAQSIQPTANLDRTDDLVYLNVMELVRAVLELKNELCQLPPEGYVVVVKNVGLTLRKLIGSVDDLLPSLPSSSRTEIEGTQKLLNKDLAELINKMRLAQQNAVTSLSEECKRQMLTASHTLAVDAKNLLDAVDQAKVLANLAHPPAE
Sequence of K1T (P10721 26-976): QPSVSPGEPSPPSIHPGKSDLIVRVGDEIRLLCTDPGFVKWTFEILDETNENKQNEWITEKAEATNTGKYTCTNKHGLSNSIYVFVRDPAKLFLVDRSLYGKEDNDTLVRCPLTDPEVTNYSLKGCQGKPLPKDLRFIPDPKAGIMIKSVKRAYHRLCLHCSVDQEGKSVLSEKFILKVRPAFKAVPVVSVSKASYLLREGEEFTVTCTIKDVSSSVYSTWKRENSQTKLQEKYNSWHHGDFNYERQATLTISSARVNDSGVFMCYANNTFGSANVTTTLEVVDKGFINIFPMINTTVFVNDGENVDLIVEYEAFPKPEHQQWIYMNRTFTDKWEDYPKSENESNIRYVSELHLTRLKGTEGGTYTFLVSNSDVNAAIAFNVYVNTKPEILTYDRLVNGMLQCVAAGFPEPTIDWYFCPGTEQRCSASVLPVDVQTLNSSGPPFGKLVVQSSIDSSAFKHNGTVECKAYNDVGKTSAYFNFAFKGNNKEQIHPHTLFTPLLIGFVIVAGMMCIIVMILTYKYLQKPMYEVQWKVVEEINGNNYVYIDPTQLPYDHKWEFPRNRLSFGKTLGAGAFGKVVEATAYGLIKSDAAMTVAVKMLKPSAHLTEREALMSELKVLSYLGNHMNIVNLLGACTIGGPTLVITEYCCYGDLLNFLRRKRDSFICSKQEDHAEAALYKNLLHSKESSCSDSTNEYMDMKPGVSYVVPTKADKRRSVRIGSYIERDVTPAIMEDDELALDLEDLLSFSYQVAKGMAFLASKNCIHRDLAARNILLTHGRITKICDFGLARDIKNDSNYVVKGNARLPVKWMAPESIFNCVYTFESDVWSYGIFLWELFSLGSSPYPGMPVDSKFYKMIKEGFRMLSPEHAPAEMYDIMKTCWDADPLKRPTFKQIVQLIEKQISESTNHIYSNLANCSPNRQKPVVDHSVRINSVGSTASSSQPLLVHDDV
Sequence of JAK2 (O60674 826-1132 limits assumed): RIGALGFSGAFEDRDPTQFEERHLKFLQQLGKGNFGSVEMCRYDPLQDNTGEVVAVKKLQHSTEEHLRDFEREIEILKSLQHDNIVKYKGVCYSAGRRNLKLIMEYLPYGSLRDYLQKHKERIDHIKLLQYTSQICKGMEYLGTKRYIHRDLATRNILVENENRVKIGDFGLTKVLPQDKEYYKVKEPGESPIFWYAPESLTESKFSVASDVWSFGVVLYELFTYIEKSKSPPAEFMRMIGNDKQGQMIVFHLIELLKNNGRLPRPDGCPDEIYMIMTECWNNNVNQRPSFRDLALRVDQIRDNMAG

Row | SMILES | inhibition at 0.3 µM ([1]; 0.3 μM) [%] | inhibition at 1 µM ([1]; 1 μM) [%] | IC50 (RET) [nM] | inhibition at 1 µM (LRRK2) [%] | inhibition at 1 µM (PYK2) [%] | inhibition at 1 µM (SYK) [%] | IC50 (K1T) [nM] | IC50 (JAK2) [nM] | IC50 (FLT3) [nM]
1 | Cc1cc(C)cc(Nc2ncc(F)c(-n3cc(C)c(CN4CC[C@@H](O)C4)c3)n2)c1 [Compound 82, (R)-1-((1-(2-(3,5-dimethylphenyl-amino)-5-fluoropyrimidin-4-yl)-4-methyl-1H-pyrrol-3-yl)methyl) pyrrolidin-3-ol] | 18.1 | 21.5 |  |  |  |  |  |  | 
2 | COc1cc(Nc2ncc(C)c(-n3cc(C)c(CO)c3)n2)cc(OC)c1OC [Compound 21, (4-methyl-1-(5-methyl-2-(3,4,5-trimethoxyphenylamino)pyrimidin-4-yl)-1H-pyrrol-3-yl)methanol] |  |  | 50 | 93 | 78.2 | 96.4 | 137 | 7.7 | 1.9
